Values of other authors, collected in US5001113A, “Di- or tripeptide renin inhibitors containing lactam conformational restriction in ACHPA” (Merck & Co., Inc., priority 1990, dated 1991).
Where a SMILES comes first, the peptide text is derived from it. [ ]: non-standard residue; d: D form. The star is where a group is joined. Sta = CC(C)C[C@H](N)[C@@H](O)CC(=O)O; Isovaleryl = CC(C)CC(=O)*

Tested on: hog renin
Conditions: after the injection of hog renin into nephrectomized rats

CC(C)CC(=O)N[C@H](C(=O)N[C@H](C(=O)N[C@@H](CC(C)C)[C@@H](O)CC(=O)N[C@@H](C)C(=O)N[C@@H](CC(C)C)[C@@H](O)CC(=O)O)C(C)C)C(C)C [pepstatin] (Isovaleryl-VV[Sta]A[Sta]-OH)
blood pressure in vivo: reduces blood pressure
